Experiments:
Assay in all cases: drug sensitivity score (DSS3, normalised partial AUC of % inhibition dose-response) (DSS (score)); higher = more sensitive (stronger inhibition of viability); extreme values may be limits of the assay
[1] = test system: FMOC25_1 (patient-derived low-grade serous ovarian cancer cells); conditions: 72 h; library: FO4B; assay format: 2D, 384-well, CellTiter-Glo
Method in brief: (§1)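 Patient-derived ovarian cancer cells (early passage, under 10) were dispensed onto 384-well flat clear-bottom plates pre-plated with compounds at five concentrations covering a 10,000-fold range. Plates were incubated 72 h at 37 °C, 5% CO2, and viability was read with CellTiter-Glo. Data were processed in Breeze. The drug sensitivity score (DSS3) is a partial area under the percent-inhibition dose-response curve, divided by the log of the upper asymptote; higher means more sensitive.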

[2] = test system: FMOC17 (patient-derived low-grade serous ovarian cancer cells); conditions: 72 h; library: FO5A; assay format: 2D, 384-well, CellTiter-Glo
Method in brief: as §1

[3] = test system: FMOC06 (patient-derived mucinous ovarian cancer cells); conditions: 72 h; library: FO5A; assay format: 2D, 384-well, CellTiter-Glo
Method in brief: as §1

[4] = test system: FMOC28 (patient-derived low-grade serous ovarian cancer cells); conditions: 72 h; library: FO5A; assay format: 2D, 384-well, CellTiter-Glo
Method in brief: as §1

[5] = test system: FMOC11 (patient-derived high-grade serous ovarian cancer cells); conditions: 72 h; library: FO5A; assay format: 2D, 384-well, CellTiter-Glo
Method in brief: as §1

[6] = test system: FMOC02_3 (patient-derived low-grade serous ovarian cancer cells); conditions: 72 h; library: FO5A; assay format: 2D, 384-well, CellTiter-Glo
Method in brief: as §1

[7] = test system: FMOC03 (patient-derived mucinous ovarian cancer cells); conditions: 72 h; library: FO5A; assay format: 2D, 384-well, CellTiter-Glo
Method in brief: as §1

[8] = test system: FMOC14 (patient-derived high-grade serous ovarian cancer cells); conditions: 72 h; library: FO5A; assay format: 2D, 384-well, CellTiter-Glo
Method in brief: as §1

[9] = test system: FMOC02_2 (patient-derived low-grade serous ovarian cancer cells); conditions: 72 h; library: FO5A; assay format: 2D, 384-well, CellTiter-Glo
Method in brief: as §1

[10] = test system: FMOC24 (patient-derived high-grade serous ovarian cancer cells); conditions: 72 h; library: FO5A; assay format: 2D, 384-well, CellTiter-Glo
Method in brief: as §1

[11] = test system: FMOC27 (patient-derived low-grade serous ovarian cancer cells); conditions: 72 h; library: FO5A; assay format: 2D, 384-well, CellTiter-Glo
Method in brief: as §1

[12] = test system: FMOC22 (patient-derived mucinous ovarian cancer cells); conditions: 72 h; library: FO5A; assay format: 2D, 384-well, CellTiter-Glo
Method in brief: as §1

[13] = test system: FMOC09 (patient-derived high-grade serous ovarian cancer cells); conditions: 72 h; library: FO5A; assay format: 2D, 384-well, CellTiter-Glo
Method in brief: as §1

[14] = test system: FMOC25_2 (patient-derived low-grade serous ovarian cancer cells); conditions: 72 h; library: FO5A; assay format: 2D, 384-well, CellTiter-Glo
Method in brief: as §1

[15] = test system: FMOC02_1 (patient-derived low-grade serous ovarian cancer cells); conditions: 72 h; library: FO5A; assay format: 2D, 384-well, CellTiter-Glo
Method in brief: as §1

[16] = test system: FMOC04 (patient-derived high-grade serous ovarian cancer cells); conditions: 72 h; library: FO5A; assay format: 2D, 384-well, CellTiter-Glo
Method in brief: as §1

| SMILES | drug sensitivity score [1] | drug sensitivity score [2] | drug sensitivity score [3] | drug sensitivity score [4] | drug sensitivity score [5] | drug sensitivity score [6] | drug sensitivity score [7] | drug sensitivity score [8] | drug sensitivity score [9] | drug sensitivity score [10] | drug sensitivity score [11] | drug sensitivity score [12] | drug sensitivity score [13] | drug sensitivity score [14] | drug sensitivity score [15] | drug sensitivity score [16] |
| --- | --- | --- | --- | --- | --- | --- | --- | --- | --- | --- | --- | --- | --- | --- | --- | --- |
| CO[C@H]1C[C@@H]2CC[C@@H](C)[C@@](O)(O2)C(=O)C(=O)N2CCCC[C@H]2C(=O)O[C@H]([C@H](C)C[C@@H]2CC[C@@H](O)[C@H](OC)C2)CC(=O)[C@H](C)/C=C(\C)[C@@H](O)[C@@H](OC)C(=O)[C@H](C)C[C@H](C)/C=C/C=C/C=C/1C [Sirolimus] | 8.9 | 4.7 | 2.5 | 3.3 | 2.1 | 10 | 2 | 1 | 7.3 | 6.1 | 3.1 | 4 | 1.4 | 6.3 | 6.3 | 1.1 |
| Cc1c(C(=O)Nc2ccc(N3C[C@@H](C)O[C@@H](C)C3)nc2)cccc1-c1ccc(OC(F)(F)F)cc1 [Sonidegib] | 0 | 3 | 0 | 2.1 | 0.4 | 1.3 | 0 | 0 | 0.1 | 2.45 | 0 | 0 | 0.1 | 0 | 2.1 | 0 |
| C=CCN(/C=C1/C(=O)O[C@H](COC)[C@@]2(C)C1=C(O)C(=O)C1=C2[C@H](OC(C)=O)C[C@]2(C)C(=O)CC[C@@H]12)CC=C [Sonolisib] | 0 | 0 | 0 | 0.4 | 0 | 0.4 | 0 | 0 | 0.3 | 0.25 | 0 | 0 | 0 | 0 | 0 | 0 |
| CNC(=O)c1cc(Oc2ccc(NC(=O)Nc3ccc(Cl)c(C(F)(F)F)c3)cc2)ccn1 [Sorafenib] | 0 | 0.5 | 0 | 0 | 0 | 0 | 0 | 0 | 0 | 0 | 0 | 0 | 0 | 0 | 0 | 0 |
| CN1CCN(c2nc(C3=C(c4c[nH]c5ccccc45)C(=O)NC3=O)c3ccccc3n2)CC1 [Sotrastaurin] | 0 | 3.9 | 0 | 0 | 2.1 | 9.9 | 0 | 0 | 4.3 | 1.85 | 0 | 0 | 0 | 0 | 3 | 0 |
| C=CC(=O)Nc1cccc(Nc2nc(Nc3ccc(OCCOC)cc3)ncc2F)c1 [Spebrutinib] | 0 | 2.3 | 0 | 1.6 | 0.9 | 5.7 | 0 | 0 | 2.9 | 0 | 2.2 | 0 | 1.5 | 2.9 | 3.1 | 0 |
| CC(C)n1cnc2c(NCCc3ccc(O)cc3)nc(-c3csc4ccccc34)nc21 [StemRegenin 1] | 1.6 | 6.8 | 4.5 | 2.9 | 1 | 4.7 | 4.8 | 0.6 | 6 | 6.15 | 6.9 | 2.7 | 0.3 | 6.1 | 4.2 | 1.95 |
| CCN(CC)CCNC(=O)c1c(C)[nH]c(/C=C2\C(=O)Nc3ccc(F)cc32)c1C [Sunitinib] | 0 | 0.1 | 0 | 0 | 0 | 0.6 | 0 | 0 | 0.9 | 0 | 0 | 0 | 0 | 0.5 | 2.3 | 0 |
| CC(C)(O)CC(=O)NCCn1ccc2ncnc(Nc3ccc(Oc4cccc(C(F)(F)F)c4)c(Cl)c3)c21 [TAK-285] | 5 | 4.5 | 1.3 | 2.4 | 2.7 | 5.3 | 5.1 | 1 | 8.6 | 0.9 | 4.3 | 0 | 3.7 | 4.8 | 6.2 | 0 |
| Cc1cccc(-c2[nH]c(CNc3ccccc3F)nc2-c2ccc3ncnn3c2)n1 [TEW-7197] | 0 | 0 | 3.9 | 0 | 0.4 | 0.1 | 0 | 0 | 1.8 | 0.85 | 0.2 | 0 | 0 | 0 | 0 | 0 |
| Nc1nc(N)c2nc(-c3cccc(O)c3)c(-c3cccc(O)c3)nc2n1 [TG100-115] | 0 | 1.1 | 0.4 | 0 | 0.4 | 1.4 | 0.1 | 0.7 | 0 | 0.1 | 0 | 0 | 0.3 | 0.7 | 0 | 0 |
